According to PubChem BioAssay AID624258 (Broad Institute, 2012):
Calls of active or inactive are those of the source. How the calls were made is not given here.

The compounds below were run on S. cerevisiae SKN7-toxicity growth rescue, plate reader (assay: SKN7 mediated toxicity in Saccharomyces cerevisiae, growth rescue counterscreen, dose confirmation (AID 624258);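 further: growth read after three days of incubation at 30 °C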).

Row | SMILES | AC40
1 | N#CC1=C(N)NC(=S)C(C(N)=O)C1c1ccc(Cl)cc1Cl (stereo unspecified) | 10.5 µM
2 | COc1cc2c(cc1OC)C(C)N(C(=O)c1cc3c(=O)oc4ccc(C)cc4c3s1)CC2 (stereo unspecified) | > 19.5 µM (inactive)
3 | N#C/C(=C\c1cccnc1)c1ccc([N+](=O)[O-])cc1 | 16.7 µM
4 | O=C(CCc1ccccc1)NNC(=S)NC(=O)c1ccccc1 | 0.923 µM
5 | O=C(CSc1nc2ccccc2s1)N/N=C/c1cc([N+](=O)[O-])ccc1O | 3.97 µM
6 | O=S(=O)(CCSc1nc2ccccc2o1)c1nc2ccccc2s1 | 3.62 µM
7 | CC(C)(C)c1cc(-c2nc(N)nc(N)n2)c(O)c(C(C)(C)C)c1 | 1.92 µM
8 | O=S(=O)(NCC1COc2ccccc2O1)c1ccc2ccccc2c1 (stereo unspecified) | 8.68 µM
9 | C(=N\Nc1nncc2ccccc12)/c1ccccn1 | 3.27 µM
10 | COC(=O)/C=C\C(=O)Nc1cccc([N+](=O)[O-])c1 | 2.17 µM
11 | Cc1onc(-c2c(Cl)cccc2Cl)c1C(=O)N/N=C(\N)COc1ccc(Cl)cc1 | 2.55 µM
12 | Oc1cc(Nc2ccccc2)cc2cccnc12 | 3.81 µM
13 | CCCOc1ccc(C(=O)NNC(=S)NC(=O)CC)cc1 | 1.48 µM
14 | CCOC(=O)c1c(C)oc2c1C(=O)c1ccccc1C2=O | 2.28 µM
15 | COC(=O)C1CCN(C2CC(=O)N(c3cc(C)cc(C)c3)C2=O)CC1 (stereo unspecified) | 6.63 µM
16 | Cc1ccc(NC(=O)CN(C)C(=O)c2cccnc2Nc2cccc(C(F)(F)F)c2)cc1 | 5.69 µM
17 | Cc1cccc(C)c1NC(=O)c1nc(S(=O)(=O)Cc2ccccc2)ncc1Cl | 7.57 µM
18 | O=C1c2ccccc2NC(c2ccc(-c3cccc([N+](=O)[O-])c3)o2)N1O (stereo unspecified) | 4.74 µM
19 | O=c1nc(N/N=C/c2ccccn2)cn[nH]1 | 4.69 µM
20 | O=C(CSc1ccc(-c2ccccn2)nn1)N1CCc2ccccc21 | 10.2 µM
21 | O=c1[nH]c(=O)n(C2OC(CO)C(O)C2O)cc1F (stereo unspecified) | 12.9 µM
22 | O=C(COC(=O)c1ccc([N+](=O)[O-])o1)NC1CCCc2ccccc21 (stereo unspecified) | 2.34 µM
23 | CCOC(=O)c1ccc(NC(=O)CC2OCCN(CC)C2=O)cc1 (stereo unspecified) | 5.81 µM
24 | O=Nc1c(O)n(Cc2ccc(Cl)c(Cl)c2)c2ccccc12 | 8.74 µM

Row | SMILES | AC40
25 | COc1ccccc1-c1cc(C(F)(F)F)nc(S(C)(=O)=O)n1 | 1.71 µM
26 | O=C(NNC(=O)c1cc(Cl)ccc1O)c1cccc(S(=O)(=O)N2CCOCC2)c1 | 3.31 µM
27 | Nc1[nH]c(=O)ncc1F | 1.83 µM
28 | Cc1ccc(C(=O)Sc2cccccc2=O)cc1 | 0.322 µM
29 | CC(C)n1cnc2c(NCc3ccccc3)cc(Cc3ccc(F)cc3)cc21 | 3.4 µM
30 | O=C1c2ccccc2C(=O)c2c1oc(C(F)(F)F)c2C(=O)c1ccccc1 | 2.6 µM
31 | NNC(=O)c1ccc2nc(-c3ccc(Br)cc3)cn2c1 | 13.1 µM
32 | COc1ccc(-n2nc(C#N)c(Cl)cc2=O)cc1 | 5.22 µM
33 | Cc1ccc(-c2nc3ccc(Cl)cc3c(=O)n2O)cc1 | 0.914 µM
34 | Cc1ccc(SCCNC(=S)Nc2ccc(C)c(C)c2)cc1 | 14.2 µM
35 | CCc1ccc(NC(=O)CSc2ccc(-c3ccccn3)nn2)cc1 | 0.968 µM
36 | COc1cccc(NC=C2C(=O)OC3(CCCCC3)OC2=O)c1 | 5.08 µM
37 | Cc1noc2ncnc(SCc3ccc(C(F)(F)F)cc3)c12 | 0.965 µM
38 | Oc1c(C(Nc2cccc(C(F)(F)F)c2)c2cccnc2)ccc2cccnc12 (stereo unspecified) | 2.73 µM
39 | COc1ccc(N=NC2=C(O)CC(C)(C)CC2=O)c(OC)c1 | 0.306 µM
40 | CC1CCc2sc(-c3n[nH]c(=S)o3)cc2C1 (stereo unspecified) | 0.663 µM
41 | O=[N+]([O-])c1cc(Cl)ccc1Sc1ccccn1 | 17.3 µM
42 | O/N=C/c1cc(Br)ccc1OCc1cccc(F)c1 | 5.83 µM
43 | Cc1nn2c(-c3ccncc3)nnc2c2ccccc12 | > 6.8 µM (inactive)
44 | O=S(=O)(Nc1nc2ccccc2nc1N1CCN(c2ccccn2)CC1)c1ccc(Cl)cc1 | 0.818 µM
45 | O=C(O)c1cccc(NN=C2c3ccccc3-c3ccccc32)c1 | 3.11 µM
46 | COc1ccc(/C=C(\C#N)c2c[nH]c3ccccc23)cc1 | 17.6 µM
47 | Clc1cccc(CON/C=N/c2ncnc3sccc23)c1 | 3.8 µM
48 | COC1=C(OC)C(=O)C(Sc2ccc3ccccc3c2)=CC1=O | 6.52 µM

Row | SMILES | AC40
49 | S=C(NCCCc1ccccc1)Nc1ccccc1Cl | 5.29 µM
50 | CCc1ccccc1OCC(=O)Nc1nc(-c2cccnc2)cs1 | 1.23 µM
51 | COc1cccc2c1C(=O)c1c(O)c3c(c(O)c1C2=O)C[C@@](O)(C(=O)CO)C[C@@H]3O[C@H]1C[C@H](N)[C@H](O)[C@H](C)O1 | 6.21 µM
52 | Cc1ccc(CN=Cc2[nH]c3ccc(Br)c(Cl)c3c2O)cc1 | 9.03 µM
53 | O=C(NNC(=O)c1cc(Cl)ccc1O)c1ccc(NS(=O)(=O)c2cccs2)cc1 | 5.75 µM
54 | CC(/C=N/n1c(COc2ccccc2)n[nH]c1=S)=C\c1ccccc1 | > 19.5 µM (inactive)
55 | Cc1cccc(N2CCN(C(=O)c3c(-c4ccccc4)noc3C)CC2)c1C | 0.414 µM
56 | Cc1nc2ccc(NC(=O)COc3cccc(F)c3)cc2s1 | 1.43 µM
57 | COc1ccc2c(c1)OC[C@H]1[C@H]2N2C(=O)c3cc(Cl)ccc3NC(=O)[C@@]2(C)[C@H]1c1ccccc1 | 10.8 µM
58 | CCC(=O)NC(c1cc(Cl)c2cccnc2c1O)C(C)C (stereo unspecified) | 3.15 µM
59 | O=C(Oc1cccc(NC(=O)c2ccccc2Cl)c1)c1ccc([N+](=O)[O-])cc1 | 14.1 µM
60 | Cc1cc(C)c(C(N)=O)c(Nc2cccc3ccccc23)n1 | > 19.5 µM (inactive)
61 | CCCCCCCCCCOC(=O)Cn1c(COc2ccccc2)[n+](C)c2ccccc21 | 3.02 µM
62 | CC(C)(C)C(=O)C(Oc1ccc(Cl)cc1)n1cncn1 (stereo unspecified) | 2.02 µM
63 | CC1CCCCC1NC(=O)/C(C#N)=C/c1ccccc1F (stereo unspecified) | 2.04 µM
64 | Cc1ccccc1NC(=O)CSc1ccc(-c2ccccn2)nn1 | 7.17 µM
65 | COc1ccc2c(c1)[C@H]1[C@H](CO2)[C@H](c2ccccc2)[C@]2(C)C(=O)Nc3ccc(Cl)cc3C(=O)N12 | 17.2 µM
66 | Cc1cc(C(=O)N/N=C/c2ccc(O)c(O)c2O)c(C)n1-c1ccccc1 | 1.36 µM
67 | CCCC(=O)NC(c1ccccc1OC)c1ccc2cccnc2c1O (stereo unspecified) | 1.2 µM
68 | CCCc1cc(-c2n[nH]c(=S)n2-c2cccc(C)c2)cs1 | 17 µM
69 | O=C(Nc1ccc(Cl)c(Cl)c1)C1CCCCC1 | 0.565 µM
70 | Cc1ccc(C)c(NS(=O)(=O)c2cc(C(=O)N3CCc4ccccc4C3)ccc2Cl)c1 | 6.58 µM
71 | CCCCNC1=CC(=O)C(=O)c2ccccc21 | 17.5 µM
72 | COc1cccc(-n2nc(C#N)c(Cl)cc2=O)c1 | 2.08 µM

Row | SMILES | AC40
73 | CNC1=C(N(C(C)=O)c2ccc(Br)cc2)C(=O)c2ccccc2C1=O | 15.8 µM
74 | C=CS(=O)(=O)c1sc(Cl)c(N2CCOCC2)c1[N+](=O)[O-] | 0.653 µM
75 | O=C(N/N=C/c1c(O)n(Cc2ccccc2)c(=O)c2ccccc12)c1cccnc1 | 1.01 µM
76 | Cc1nn(-c2nnc(NCc3ccccc3)nn2)c(C)c1Br | 6.94 µM
77 | Cc1nc(SCC(=O)N2CCN(c3ccccc3)CC2)c2oc3ccccc3c2n1 | 3.53 µM
78 | CCc1nc2ccccc2c(=O)n1NC(=O)c1c(O)c2ccccc2n(CC)c1=O | 2.09 µM
79 | CC(C)c1cc(-c2cc(C(=O)NCc3ccccc3)on2)nc(NCC2CC2)n1 | 7.9 µM
80 | Oc1ccccc1-c1nnc(SCCN2CCOCC2)n1Cc1ccccc1 | 9.94 µM
81 | CCc1cc(C(N)=O)c(NC(=O)c2ccc(OC)cc2)s1 | 6.02 µM
82 | Clc1cccc(-c2noc3ncnc(Nc4ccc5c(c4)OCO5)c23)c1 | 7.06 µM
83 | O=C(CSc1ccc(-c2ccccn2)nn1)c1ccccc1 | 1.22 µM
84 | COc1ccc(S(=O)(=O)N(C(=O)c2ccncc2)c2ccc(OC(=O)c3ccncc3)cc2)cc1 | 1.88 µM
85 | CCNc1nc(N)nc(-c2cc(Cl)ccc2O)n1 | 2.17 µM
86 | CC1=C(C)/C(=N\OS(=O)(=O)c2ccc(C)cc2)C=CC1=O | 1.11 µM
87 | Cc1ccc(C)c(C(=O)O/N=C(\N)c2ccc(Br)cc2)c1 | 3.86 µM
88 | Cc1cccc(C)c1N=Nc1c(C)cc(O)cc1C | 1.12 µM
89 | Clc1cccc(N/N=C(\Cc2nc3ccccc3[nH]2)c2ccccc2)c1 | 2.61 µM
90 | COc1ccc(C(c2c(O)ccc3ccccc23)N2CCOCC2)c(OC)c1 (stereo unspecified) | 2.35 µM
91 | Cc1ccc(CN2CC(C(=O)N(Cc3nnc(-c4ccccc4Cl)o3)C3CC3)CC2=O)cc1 (stereo unspecified) | 8.15 µM
92 | c1ccc(Nc2cccc(Nc3ccccc3)c2)cc1 | 0.766 µM
93 | C/C(=N\NC(=S)NC1CCCCC1)c1c(F)cccc1F | 3.39 µM
94 | Cc1ccc(S(=O)(=O)N2[C@@H](c3ccc(Cl)cc3)C(C(=O)O)=CC[C@H]2c2ccc(Cl)c(Cl)c2)cc1 | 3.31 µM
95 | N/C(Cc1ccc(Cl)cc1Cl)=N\OC(=O)c1ccc(Br)o1 | 0.746 µM
96 | CCCCC(=O)NC(c1ccc(OC)c(OC)c1)c1ccc2cccnc2c1O (stereo unspecified) | 1 µM

Row | SMILES | AC40
97 | COc1cc(C(=O)ON=C2C3CC4CC(C3)CC2C4)cc(OC)c1OC | 1.79 µM
98 | CC(C)(C)c1ccc(Cn2ccc(-c3ccc4c(c3)OCO4)n2)cc1 | 8.82 µM
99 | Cc1nnc(N/N=C/c2cccc(OCc3ccc(Cl)c(Cl)c3)c2)n1N | 3.28 µM
100 | CN1CCN(C2CCN(c3ccc(Nc4nnc(Cl)c(Nc5ccccc5S(C)(=O)=O)n4)c(OC(CF)CF)c3)CC2)CC1 | 15.1 µM
101 | CC(=O)NC(c1ccc(Cl)cc1Cl)c1ccc2cccnc2c1O (stereo unspecified) | 1.38 µM
102 | O=C1C(Br)=Cc2cccc3cccc1c23 | 5.81 µM
103 | O=C(CSc1ccc(-c2ccccn2)nn1)NC1CCCCC1 | 16.1 µM
104 | COc1cc2c(c(OC)c1OC)-c1ccc(O)c(=O)cc1[C@@H](N)CC2 | 0.936 µM
105 | CC(C)(C)c1ccc(Oc2ccc(N)cc2)cc1 | 1.95 µM
106 | COc1ccc2c(c1)OC[C@H]1[C@H]2N2C(=O)c3cc(OC)ccc3NC(=O)[C@@]2(C)[C@H]1c1ccccc1 | 9.31 µM
107 | Cc1[nH]n(-c2ccccc2)c(=O)c1/C=N/Nc1nncc(-c2ccccc2)n1 | 1.11 µM
108 | N/C(Cc1ccc(Cl)cc1Cl)=N\OC(=O)c1ccccc1F | 0.718 µM
109 | CCOC(=O)CSC1=NC(=O)/C(=C\c2ccc(Cl)cc2)S1 | 6.09 µM
110 | O=C(Cc1ccccc1F)Nc1nc(-c2ccc(F)c(F)c2)cs1 | 2.54 µM
111 | N#C/C(=C\c1cccnc1)c1ccc(Br)cc1 | 15.9 µM
112 | Cc1ccc(NC(=O)c2cc(N3C(=O)C=CC3=O)ccc2Cl)cc1C | 0.342 µM
113 | CC(=O)c1c(C)oc2c1C(=O)c1ccccc1C2=O | 1.92 µM
114 | CCCCCCCCNC(=O)/C(C#N)=C/c1ccccc1[N+](=O)[O-] | 3.17 µM
115 | COc1cccc2c1C(=O)c1c(O)c3c(c(O)c1C2=O)CC(O)(C(C)=O)CC3OC1CC(N(C)C)C(O)C(C)O1 (stereo unspecified) | 2.85 µM
116 | CC(C)(C)n1nc(-c2ccc(F)cc2)c2c(N)ncnc21 | 15.4 µM
